Results published in PubChem BioAssay (NCI).
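How tested: cells in 96-well plates exposed to compound for 48 hours at five concentrations. TGI marks complete inhibition of growth.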

Columns and labels:
Experiment in all cases: NCI-60 cell line screen, 48 h
KM20L2 colon = test system: KM20L2 colon
XF 498 CNS = test system: XF 498 CNS
SF-539 CNS = test system: SF-539 CNS
ACHN renal = test system: ACHN renal
IGROV1 ovarian = test system: IGROV1 ovarian
SN12C renal = test system: SN12C renal
SW-620 colon = test system: SW-620 colon
SK-MEL-28 melanoma = test system: SK-MEL-28 melanoma
HCC-2998 colon = test system: HCC-2998 colon
CAKI-1 renal = test system: CAKI-1 renal
NCI-H23 lung = test system: NCI-H23 lung
EKVX NSCLC = test system: EKVX NSCLC
A498 renal = test system: A498 renal
HOP-18 NSCLC = test system: HOP-18 NSCLC
UACC-62 melanoma = test system: UACC-62 melanoma
HCT-15 colon = test system: HCT-15 colon
U251 CNS = test system: U251 CNS
HOP-92 NSCLC = test system: HOP-92 NSCLC
OVCAR-5 ovarian = test system: OVCAR-5 ovarian
T-47D breast = test system: T-47D breast
SNB-19 CNS = test system: SNB-19 CNS
UACC-257 melanoma = test system: UACC-257 melanoma
SNB-75 CNS = test system: SNB-75 CNS
TK-10 renal = test system: TK-10 renal
HT29 colon = test system: HT29 colon
HL-60(TB) leukemia = test system: HL-60(TB) leukemia
RXF-631 renal = test system: RXF-631 renal
OVCAR-4 ovarian = test system: OVCAR-4 ovarian
MOLT-4 leukemia = test system: MOLT-4 leukemia
NCI-H522 lung = test system: NCI-H522 lung
M14 melanoma = test system: M14 melanoma
DMS 273 small cell lung = test system: DMS 273 small cell lung
SK-MEL-5 melanoma = test system: SK-MEL-5 melanoma
KM12 colon = test system: KM12 colon
DLD-1 colon = test system: DLD-1 colon
HOP-62 NSCLC = test system: HOP-62 NSCLC
RXF 393 renal = test system: RXF 393 renal
SK-MEL-2 melanoma = test system: SK-MEL-2 melanoma
SNB-78 CNS = test system: SNB-78 CNS
PC-3 prostate = test system: PC-3 prostate
K-562 leukemia = test system: K-562 leukemia
MDA-MB-435 = test system: MDA-MB-435
SF-268 CNS = test system: SF-268 CNS
LOX IMVI melanoma = test system: LOX IMVI melanoma
DU-145 prostate = test system: DU-145 prostate
SR leukemia = test system: SR leukemia
COLO 205 colon = test system: COLO 205 colon
NCI-H226 lung = test system: NCI-H226 lung
MCF7 breast = test system: MCF7 breast
OVCAR-3 ovarian = test system: OVCAR-3 ovarian
SK-OV-3 ovarian = test system: SK-OV-3 ovarian
NCI-H460 lung = test system: NCI-H460 lung
A549 NSCLC = test system: A549 NSCLC
MDA-N = test system: MDA-N
LXFL 529 NSCLC = test system: LXFL 529 NSCLC
DMS 114 small cell lung = test system: DMS 114 small cell lung
UO-31 renal = test system: UO-31 renal
OVCAR-8 ovarian = test system: OVCAR-8 ovarian
SF-295 CNS = test system: SF-295 CNS
786-0 renal = test system: 786-0 renal
MALME-3M melanoma = test system: MALME-3M melanoma
MDA-MB-231 breast = test system: MDA-MB-231 breast
CCRF-CEM leukemia = test system: CCRF-CEM leukemia
HCT-116 colon = test system: HCT-116 colon
M19-MEL melanoma = test system: M19-MEL melanoma
BT-549 breast = test system: BT-549 breast
RPMI-8226 leukemia = test system: RPMI-8226 leukemia
HS 578T breast = test system: HS 578T breast

CN(C)CCC(=O)N1C/C(=C/c2ccccc2)C(=O)/C(=C\c2ccccc2)C1
TGI (KM20L2 colon): 2.89 µM | TGI (XF 498 CNS): 6.69 µM | TGI (SF-539 CNS): 11.9 µM | TGI (ACHN renal): 5.5 µM | TGI (IGROV1 ovarian): 7.02 µM | TGI (SN12C renal): 3.84 µM | TGI (SW-620 colon): 1.22 µM | TGI (SK-MEL-28 melanoma): 5.18 µM | TGI (HCC-2998 colon): 2.45 µM | TGI (CAKI-1 renal): 7.02 µM | TGI (NCI-H23 lung): 6.76 µM | TGI (EKVX NSCLC): 12.6 µM | TGI (A498 renal): 6.75 µM | TGI (HOP-18 NSCLC): 10.9 µM | TGI (UACC-62 melanoma): 3.77 µM | TGI (HCT-15 colon): 3.91 µM | TGI (U251 CNS): 2 µM | TGI (HOP-92 NSCLC): 16.6 µM | TGI (OVCAR-5 ovarian): 6.66 µM | TGI (T-47D breast): 17.7 µM | TGI (SNB-19 CNS): 7.62 µM | TGI (UACC-257 melanoma): 4.61 µM | TGI (SNB-75 CNS): 15.1 µM | TGI (TK-10 renal): 17.9 µM | TGI (HT29 colon): 2.69 µM | TGI (HL-60(TB) leukemia): 1.81 µM | TGI (RXF-631 renal): 10.6 µM | TGI (OVCAR-4 ovarian): 7.98 µM | TGI (MOLT-4 leukemia): 1.46 µM | TGI (NCI-H522 lung): 0.977 µM | TGI (M14 melanoma): 6.53 µM | TGI (DMS 273 small cell lung): 3.26 µM | TGI (SK-MEL-5 melanoma): 3.9 µM | TGI (KM12 colon): 1.73 µM | TGI (DLD-1 colon): 3.25 µM | TGI (HOP-62 NSCLC): 16 µM | TGI (RXF 393 renal): 4.94 µM | TGI (SK-MEL-2 melanoma): 8.74 µM | TGI (SNB-78 CNS): 16.1 µM | TGI (PC-3 prostate): 4.2 µM | TGI (K-562 leukemia): 0.973 µM | TGI (MDA-MB-435): 3.85 µM | TGI (SF-268 CNS): 9.22 µM | TGI (LOX IMVI melanoma): 1.27 µM | TGI (DU-145 prostate): 18.5 µM | TGI (SR leukemia): 8.63 µM | TGI (COLO 205 colon): 5.77 µM | TGI (NCI-H226 lung): 12.6 µM | TGI (MCF7 breast): 2.19 µM | TGI (OVCAR-3 ovarian): 7.05 µM | TGI (SK-OV-3 ovarian): 15.2 µM | TGI (NCI-H460 lung): 6.47 µM | TGI (A549 NSCLC): 13.5 µM | TGI (MDA-N): 3.71 µM | TGI (LXFL 529 NSCLC): 5.51 µM | TGI (DMS 114 small cell lung): 4.1 µM | TGI (UO-31 renal): 5.21 µM | TGI (OVCAR-8 ovarian): 7.58 µM | TGI (SF-295 CNS): 8.55 µM | TGI (786-0 renal): 3.62 µM | TGI (MALME-3M melanoma): 5.9 µM | TGI (MDA-MB-231 breast): 2.6 µM | TGI (CCRF-CEM leukemia): 0.874 µM | TGI (HCT-116 colon): 1.15 µM | TGI (M19-MEL melanoma): 2.83 µM | TGI (BT-549 breast): 2.81 µM | TGI (RPMI-8226 leukemia): 0.717 µM | TGI (HS 578T breast): 20.3 µM
